Laboratory results: PMC6161602, “Synthesis and characterisation of (Z)-styrylbenzene derivatives as potential selective anticancer agents” (Journal of Enzyme Inhibition and Medicinal Chemistry, 2018)

Columns and labels:
MGC-803 cells = assay: MTT cell growth inhibition assay, MGC-803; type: cell-based, human; conditions: for IC50: MTT, 48 h incubation, MGC-803
Excerpt: (§1) All human cell lines were used in this study. MGC-803 late-stage differentiation gastric cancer cell, A549 lung cancer cell, HepG2 hepatoma cell, AGS gastric cancer cell, BEL-7402 liver cancer cell, HCT-116 colorectal cancer cell, HeLa cervical cancer cell, SGC-7901 early differentiation gastric cancer cell, L-02 normal liver cell, MCF-7 breast cancer cell, and MCF-10A normal breast cell were initially purchased from American Type Culture Collection (ATCC, Manassas, VA, USA). RPMI-1640 media, Dulbecco’s modified Eagle’s medium (DMEM), and foetal bovine serum (FBS) were provided from Gibco Company (Grand Island, NY, USA). The cells were maintained in DMEM or RPMI-1640, supplemented with 10% FBS, 100 IU/mL penicillin and […] (Grand Island, NY, USA), and at 37 °C in a humidified atmosphere containing 5% CO2.
(§2) Cells were plated in 96-well plates at a density of 30–40% to ensure exponential growth throughout the experimental period, and then allowed to adhere for 1 day[21]. Next, the cells were treated with four serial concentrations (1, 10, 50, and 100 µM) of each compound. Taxol, CA-4, and CA-4P (phosphorylated form of CA-4) were used as positive controls. After 48 h incubation, MTT solution was added to each well at a final concentration of 2 mg/mL, and incubated for an additional 4 h. Next, the MTT solution was removed and 150 µL of dimethyl sulphoxide (DMSO)/well was added (Sigma-Aldrich, St Louis, MO, USA). The plates were shaken vigorously at RT to ensure complete solubilisation, and absorption at 492 nm was determined.
(§3) According to standard protocol, preliminary in vitro anti-proliferative activities of the synthesised compounds were evaluated by MTT assay, using nine human cancer cell lines (MGC-803, A549, HepG2, AGS, BEL-7402, HCT116, HeLa, SGC-7901, and MCF-7) and two normal human cell lines (L-02 and MCF-10A), and compared with those of CA-4, CA-4P, and taxol.

A549 lung cancer cell = assay: MTT cell growth inhibition assay, A549; type: cell-based, human; conditions: for IC50: Homo sapiens, MTT, 48 h incubation, A549
Excerpt: as §1, §2, §3

HepG2 hepatoma cell = assay: MTT cell growth inhibition assay, HepG-2; type: cell-based, human; conditions: for IC50: Homo sapiens, HepG2, MTT, 48 h incubation, HepG-2
Excerpt: as §1, §2, §3

AGS cells = assay: MTT cell growth inhibition assay, AGS; type: cell-based, human; conditions: for IC50: Homo sapiens, MTT, 48 h incubation, AGS
Excerpt: as §1, §2, §3

BEL-7402 cells [1] = assay: MTT cell growth inhibition assay, BEL-7402; type: cell-based, human; conditions: for IC50: Homo sapiens, MTT, 48 h incubation, Bel-7402
Excerpt: as §1, §2, §3

HCT116 cells = assay: MTT cell growth inhibition assay, HCT116; type: cell-based, human; conditions: for IC50: Homo sapiens, HCT-116, MTT, 48 h incubation, HCT116
Excerpt: as §1, §2, §3

L-02 normal liver cell = assay: MTT cell growth inhibition assay, L-02 (normal); type: cell-based, human; conditions: Homo sapiens, 48 h incubation, L-02 normal cells
Excerpt: as §1, §2, §3

[2] = tested on: HeLa cervical cancer cell; assay: MTT cell growth inhibition assay, HeLa; type: cell-based, human; conditions: Homo sapiens, 48 h incubation
Excerpt: as §1, §2, §3

[3] = tested on: SGC-7901 early differentiation gastric cancer cell; assay: MTT cell growth inhibition assay, SGC-7901; type: cell-based, human; conditions: Homo sapiens, 48 h incubation
Excerpt: as §1, §2, §3

[4] = tested on: MCF-10A normal breast cell; assay: MTT cell growth inhibition assay, MCF-10A (normal); type: cell-based, human; conditions: Homo sapiens, 48 h incubation, MCF-10A normal cells
Excerpt: as §1, §2, §3

MCF-7 breast cancer cell = assay: MTT cell growth inhibition assay, MCF-7; type: cell-based, human; conditions: for IC50: Homo sapiens, MCF7, MTT, 48 h incubation, MCF-7
Excerpt: as §1, §2, §3

[5] = tested on: nine human cancer cell lines (MGC-803, A549, HepG2, AGS, BEL-7402, HCT116, HeLa, SGC-7901, and MCF-7); assay: MTT assay, panel of cell lines (result in words); type: cell-based; conditions: against all nine cancer cell lines
Excerpt: as §1, §2, §3

BEL-7402 cells [6] = assay: Analysis of apoptosis by flow cytometry (Annexin V-FITC/PI); type: cell-based, human; conditions: BEL-7402, 0.1 µM, 12 h; vehicle 4.7%
Protocol: Apoptosis was detected using an apoptosis detection kit. BEL-7402 cells were plated in 6-well plates (5.0 × 10^5 cells/well) and incubated at 37 °C overnight. Exponentially growing cells were then incubated with 6h at either 0.01 or 0.1 µM, or taxol at 0.1 µM. Vehicle group was treated with 0.1% DMSO. Following 12 h of incubation, cells were analysed for apoptosis as previously described, using a FACSCalibur flow cytometer with Cell Quest software (Becton-Dickinson, Franklin Lakes, NJ, USA).

HeLa cells = tested on: HeLa cells; design: method as in PMID 27887843; conditions: printed in Figure 1, previous experiment ref 2; cited from earlier work
L-02 cells = tested on: L-02 cells; design: method as in PMID 27887843; conditions: L-02, printed in Figure 1, previous experiment ref 2; cited from earlier work

| SMILES | IC50 (MGC-803 cells; Homo sapiens, MGC-803, 48 h) | IC50 (A549 lung cancer cell) | IC50 (HepG2 hepatoma cell) | IC50 (AGS cells) | IC50 (BEL-7402 cells [1]) | IC50 (HCT116 cells) | IC50 [2] | IC50 [3] | IC50 (MCF-7 breast cancer cell) | melting point | IC50 (L-02 normal liver cell) | IC50 [4] | in vitro anticancer activity [5] | other results |
| --- | --- | --- | --- | --- | --- | --- | --- | --- | --- | --- | --- | --- | --- | --- |
| CC(=O)O[C@H]1C(=O)[C@@]2(C)[C@H]([C@H](OC(=O)c3ccccc3)[C@]3(O)C[C@H](OC(=O)[C@H](O)[C@@H](NC(=O)c4ccccc4)c4ccccc4)C(C)=C1C3(C)C)[C@]1(OC(C)=O)CO[C@@H]1C[C@@H]2O [Taxol, reference compound] | < 0.06 µM | 0.44 ± 0.02 µM | 0.94 ± 0.03 µM | 0.02 ± 0.01 µM | 0.09 ± 0.02 µM | 0.03 ± 0.01 µM | 13 ± 0.47 µM | > 100 µM | 0.08 ± 0.01 µM | – | > 100 µM | 0.18 ± 0.02 µM | – | IC50 (MGC-803 cells): 0.06 ± 0.01 µM; SI IC50 (L-02/MGC-803) (MGC-803 cells; selectivity index, IC50 (L-02)/IC50 (MGC-803)): >1666; SI IC50 (L-02/A549) (A549 lung cancer cell; selectivity index, IC50 (L-02)/IC50 (A549)): >227.2; SI IC50 (L-02/HepG-2) (HepG2 hepatoma cell; selectivity index, IC50 (L-02)/IC50 (HepG-2)): >106.3; SI IC50 (L-02/AGS) (AGS cells; selectivity index, IC50 (L-02)/IC50 (AGS)): >5000; SI IC50 (L-02/BEL-7402) (BEL-7402 cells [1]; selectivity index, IC50 (L-02)/IC50 (BEL-7402)): >1111; SI IC50 (L-02/HCT116) (HCT116 cells; selectivity index, IC50 (L-02)/IC50 (HCT116)): >3333; SI IC50 (MCF-10A/MCF-7) (MCF-7 breast cancer cell; selectivity index, IC50 (MCF-10A)/IC50 (MCF-7)): >2.2; total apoptotic cells (early + late apoptotic cells) (BEL-7402 cells [6]): 10.7% |
| Oc1ccc(/C=C/c2cc(O)cc(O)c2)cc1 [Resveratrol, (E)-3,5,4′-trihydroxystilbene] | – | – | – | – | – | – | – | – | – | – | – | – | – | IC50 (HeLa cells): 120 µM |
| COc1cccc(/C=C(\C#N)c2cc(OC)c(OC)c(OC)c2)c1 [Compound 6c, (Z)-3-(3-Methoxyphenyl)-2-(3,4,5-trimethoxyphenyl)acrylonitrile] | – | > 100 µM | > 100 µM | > 100 µM | > 100 µM | > 100 µM | > 100 µM | > 100 µM | 65.1 ± 6.64 µM | 144 to 146 °C | > 100 µM | > 100 µM | extremely poor | IC50 (MGC-803 cells; Homo sapiens): 22.6 ± 9.25 µM |
| CCOc1ccc(/C=C(\C#N)c2cc(OC)cc(OC)c2)cc1 [Compound 3] | – | – | – | – | – | – | – | – | – | – | – | – | – | IC50 (HeLa cells): 7.7 µM; IC50 (L-02 cells): > 100 µM |

The next lines start with results.

| IC50 (MGC-803 cells; Homo sapiens, MGC-803, 48 h) | IC50 (A549 lung cancer cell) | IC50 (HepG2 hepatoma cell) | IC50 (AGS cells) | IC50 (BEL-7402 cells [1]) | IC50 (HCT116 cells) | IC50 [2] | IC50 [3] | IC50 (MCF-7 breast cancer cell) | melting point | SMILES | IC50 (L-02 normal liver cell) | IC50 [4] | in vitro anticancer activity [5] | other results |
| --- | --- | --- | --- | --- | --- | --- | --- | --- | --- | --- | --- | --- | --- | --- |
| > 100 µM | > 100 µM | > 100 µM | 44.6 ± 9.11 µM | 31.2 ± 2.01 µM | 32.1 ± 5.25 µM | > 100 µM | > 100 µM | 32.9 ± 17.6 µM | 84 to 86 °C | COc1cc(/C=C(\C#N)c2cc(OC)c(OC)c(OC)c2)cc(OC)c1OC [Compound 6e, (Z)-2,3-Bis(3,4,5-trimethoxyphenyl)acrylonitrile] | 70.6 ± 7.65 µM | 15.6 ± 2.45 µM | weak anticancer activity | – |
| > 100 µM | > 100 µM | > 100 µM | > 100 µM | > 100 µM | > 100 µM | > 100 µM | > 100 µM | > 100 µM | 92 to 94 °C | COc1cc(/C(C#N)=C/c2ccc(Oc3ccccc3)cc2)cc(OC)c1OC [Compound 6b] | > 100 µM | > 100 µM | extremely poor | – |
| > 100 µM | > 100 µM | > 100 µM | > 100 µM | > 100 µM | > 100 µM | > 100 µM | > 100 µM | > 100 µM | 174 to 176 °C | COc1cc(/C(C#N)=C/c2ccc([N+](=O)[O-])cc2)cc(OC)c1OC [Compound 6a, (Z)-3-(4-Nitrophenyl)-2-(3,4,5-trimethoxyphenyl)acrylonitrile] | > 100 µM | > 100 µM | extremely poor | – |
| > 100 µM | > 100 µM | > 100 µM | > 100 µM | 44.6 ± 32.7 µM | > 100 µM | > 100 µM | > 100 µM | 16 ± 5.67 µM | 128 to 130 °C | COc1cc(/C(C#N)=C/c2ccccn2)cc(OC)c1OC [Compound 7b, (Z)-3-(Pyridin-2-yl)-2-(3,4,5-trimethoxyphenyl)acrylonitrile] | > 100 µM | 33.4 ± 17.4 µM | extremely poor | – |
